Here are results for ten molecules from article PMC4666649, “The Influence of the 1-(3-Trifluoromethyl-Benzyl)-1H-Pyrazole-4-yl Moiety on the Adenosine Receptors Affinity Profile of Pyrazolo[4,3-e][1,2,4]Triazolo[1,5-c]Pyrimidine Derivatives” (PLoS ONE, 2015).

Where a name gives a salt, the structure may show the parent alone. Read-outs that look alike come from different tables or passages of the source. Where only a bound is given, the exact number is not on record here.

Data set [1] has as its target T1, hA3 AR (Homo sapiens, UniProt P0DMS8).
T1 construct: expressed in transfected cells; host or cells: CHO cells, stably transfected
T1 sequence (P0DMS8 1-318): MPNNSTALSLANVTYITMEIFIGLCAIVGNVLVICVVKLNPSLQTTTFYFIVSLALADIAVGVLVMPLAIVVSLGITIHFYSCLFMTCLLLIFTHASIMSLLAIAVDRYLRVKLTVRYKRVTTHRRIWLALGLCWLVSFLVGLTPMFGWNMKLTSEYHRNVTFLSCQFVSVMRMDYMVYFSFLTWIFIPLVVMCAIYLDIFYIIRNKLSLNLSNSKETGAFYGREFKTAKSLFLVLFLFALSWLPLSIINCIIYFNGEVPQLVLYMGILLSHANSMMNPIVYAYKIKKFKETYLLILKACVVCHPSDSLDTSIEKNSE
Description: Radioligand binding at human A3 ARs, displacement of [3H]HEMADO, membranes of transfected CHO cells. Particulars: for Ki, hA1/hA3 (selectivity) / Ki, hA2a/hA3 (selectivity) / Ki, hA2b/hA3 (selectivity): ratio of Ki values, for reference compounds from literature affinities (Borea et al. unless otherwise indicated).
Description: (§1) All pharmacological methods followed the procedures as described earlier. […] In brief, membranes for radioligand binding were prepared from CHO cells stably transfected with human AR subtypes in a two-step procedure. In a first low-speed step (1,000 x g) cell fragments and nuclei were removed. The crude membrane fraction was sedimented from the supernatant at 100,000 x g. The membrane pellet was resuspended in the buffer used for the respective binding experiments (50 mM Tris/HCl buffer pH 7.4 for hA1 and hA2A AR; 50 mM Tris/HCl, 10 mM MgCl2, 1 mM EDTA, pH 8.25 for hA3 AR), frozen in liquid nitrogen and stored at -80°C.
(§2) Ki-values from competition experiments were calculated with the program SCTFIT.

In data set [2] the target is T1, hA3 AR. Particulars: cited from earlier work; for Ki: reference xanthines.
Another data set concerns the target T2, hA2B AR (Homo sapiens, UniProt P29275).
T2 construct: expressed in transfected cells; host or cells: CHO cells, stably transfected
T2 sequence (P29275 1-332): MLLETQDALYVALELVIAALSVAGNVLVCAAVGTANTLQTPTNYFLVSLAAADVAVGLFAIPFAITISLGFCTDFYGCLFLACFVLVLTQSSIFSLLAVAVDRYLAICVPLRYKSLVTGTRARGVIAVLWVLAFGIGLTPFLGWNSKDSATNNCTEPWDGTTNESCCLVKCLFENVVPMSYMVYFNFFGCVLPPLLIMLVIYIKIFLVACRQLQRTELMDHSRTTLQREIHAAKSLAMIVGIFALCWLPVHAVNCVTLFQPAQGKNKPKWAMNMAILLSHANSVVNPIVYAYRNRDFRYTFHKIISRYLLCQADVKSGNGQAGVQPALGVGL
In words: Inhibition of NECA-stimulated adenylyl cyclase activity in CHO cells expressing hA2B ARs. It counts as biochemical.

For data set [3], the target named is T3, hA2A AR (Homo sapiens, UniProt P29274).
T3 construct: expressed in transfected cells; host or cells: CHO cells, stably transfected
T3 sequence (P29274 whole entry): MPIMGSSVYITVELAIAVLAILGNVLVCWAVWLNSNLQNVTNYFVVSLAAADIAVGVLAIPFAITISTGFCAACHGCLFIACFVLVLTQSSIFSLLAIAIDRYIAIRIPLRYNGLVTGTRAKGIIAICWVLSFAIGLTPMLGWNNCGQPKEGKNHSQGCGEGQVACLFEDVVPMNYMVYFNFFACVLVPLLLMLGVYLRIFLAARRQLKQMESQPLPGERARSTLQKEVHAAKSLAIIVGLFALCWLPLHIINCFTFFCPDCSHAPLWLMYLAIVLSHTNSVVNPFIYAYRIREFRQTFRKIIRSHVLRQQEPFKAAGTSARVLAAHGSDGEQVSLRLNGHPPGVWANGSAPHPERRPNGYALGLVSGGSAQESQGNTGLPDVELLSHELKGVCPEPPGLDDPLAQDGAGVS
In words: Radioligand binding at human A2A ARs, displacement of [3H]NECA, membranes of transfected CHO cells.
Description: as §1, §2

The target of another data set is T4, hA1 AR (Homo sapiens, UniProt P30542).
T4 sequence (P30542 1-326): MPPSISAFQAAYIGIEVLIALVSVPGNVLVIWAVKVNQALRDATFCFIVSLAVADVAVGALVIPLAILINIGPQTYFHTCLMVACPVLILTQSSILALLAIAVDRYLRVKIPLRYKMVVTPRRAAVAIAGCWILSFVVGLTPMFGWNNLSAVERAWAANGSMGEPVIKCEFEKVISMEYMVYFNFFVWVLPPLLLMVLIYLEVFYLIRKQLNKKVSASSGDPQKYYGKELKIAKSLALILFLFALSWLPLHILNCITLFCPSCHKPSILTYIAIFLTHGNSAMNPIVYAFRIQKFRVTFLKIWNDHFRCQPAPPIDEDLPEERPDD
In words: Radioligand binding at human A1 ARs, displacement of [3H]CCPA, membranes of transfected CHO cells.

Data set [4] deals with T3, hA2A AR. As to conditions: reference xanthines; cited from earlier work.
[5] abbreviates: displacement of specific [3H]-HEMADO binding, CHO cells, geometric means with 95% confidence limits, read-out: hA3 AR (Ki nM).
The mark [6] stands for this setting: displacement of specific [3H]-NECA binding, CHO cells, geometric means with 95% confidence limits, read-out: hA2A AR (Ki nM).
Setting [7] is: displacement of specific [3H]-CCPA binding, CHO cells, n = 3–6, geometric means with 95% confidence limits, read-out: hA1 AR (Ki nM).
The mark [8] stands for this setting: competition for [3H]HEMADO, total binding, single experiment (S1 Fig), read-out: Ki, hA3 AR, representative single experiment.

Description for hA1 AR: as §1, §2
Description for hA2B AR: All pharmacological methods followed the procedures as described earlier. […] For the measurement of adenylyl cyclase activity only one high speed centrifugation of the homogenate was used. The resulting crude membrane pellet was resuspended in 50 mM Tris/HCl, pH 7.4 and immediately used for the cyclase assay.
The procedure was carried out as described previously with minor modifications. […] Membranes were incubated with about 150,000 cpm of [α-^32P]ATP for 20 min in the incubation mixture as described without EDTA and NaCl.

As for `Cn1cc2c(nc(NC(=O)Nc3ccncc3)n3nc(-c4ccco4)nc23)n1` [MRE3005F20 (HCl), reference compound], on hA3 AR [1], the “Ki, hA1/hA3 (selectivity)” value came out at 35000; the “Ki, hA2a/hA3 (selectivity)” value amounted to 10000; the “Ki, hA2b/hA3 (selectivity)” value amounted to 25000.

What is called Kd is the free concentration of one partner at which half of the binding sites on the other are occupied at equilibrium, for simple one-to-one binding. With `CCCCC#Cc1nc(NC)c2ncn([C@@H]3O[C@H](CO)[C@@H](O)[C@H]3O)c2n1` [[^3H]HEMADO, [^3H]2-(1-Hexynyl)-N-methyladenosine], the Kd at hA3 AR [2] (radioligand used at 1 nM, read-out: KD of radioligand at A3 AR) is 0.0011 µM.

Turning to `Cn1c(=O)c2[nH]c(-c3cnn(Cc4cccc(C(F)(F)F)c4)c3)nc2n(C)c1=O` [compound 1, 8-(1-(3-(trifluoromethyl)benzyl)-1H-pyrazol-4-yl)-1,3-dimethyl-1H-purine-2,6(3H,7H)-dione, reference compound], at hA3 AR [1], the “Ki, hA1/hA3 (selectivity)” value was 1 and the “Ki, hA2a/hA3 (selectivity)” value is recorded as 1.

One may read the melting point as the temperature of the solid-liquid transition. What is called Ki is the equilibrium dissociation constant of an inhibitor or competing ligand from its target. Molecule `Cn1cc2c(nc(N)n3nc(-c4cnn(Cc5cccc(C(F)(F)F)c5)c4)nc23)n1` [compound 3, 8-methyl-2-[1-(3-trifluoromethyl-benzyl)-1H-pyrazol-4-yl]-8H-pyrazolo[4,3-e][1,2,4]triazolo[1,5-c]pyrimidin-5-ylamine] showed a melting point of 125 °C. Further, at hA2B AR, the Ki was > 10000 nM and the “hA2B AR (Ki nM)” value is “almost inactive”. Moreover, the “hA3 AR (Ki nM)” value on hA3 AR [1] (displacement of specific [3H]-HEMADO binding, CHO cells, geometric means with 95% confidence limits) is “almost inactive”. Besides, at hA3 AR [1] (setting [5]), the inhibition constant (Ki) stood at 2360 nM. Besides, at hA3 AR [1], the “Ki, hA2a/hA3 (selectivity)” value stood at 4 and the “Ki, hA2b/hA3 (selectivity)” value was 4. The Ki on hA2A AR [3] (competition with [3H]NECA, total binding, single experiment (S3 Fig), read-out: Ki, hA2A AR, representative single experiment) was found to be 6820 nM. Moreover, the “hA2A AR (Ki nM)” value on hA2A AR [3] (displacement of specific [3H]-NECA binding, CHO cells, geometric means with 95% confidence limits) was “almost inactive”. The inhibition constant Ki on hA2A AR [3] (setting [6]) is 8280 nM. The inhibition constant Ki at hA1 AR (competition with [3H]CCPA, total binding, single experiment (S2 Fig), read-out: Ki, hA1 AR, representative single experiment) stood at 764 nM. Further, at hA1 AR (displacement of specific [3H]-CCPA binding, CHO cells, n = 3–6, geometric means with 95% confidence limits), the “hA1 AR (Ki nM)” value is “almost inactive”. The inhibition constant (Ki) on hA1 AR (setting [7]) was 703 nM.

Consider `Cn1cc2c(nc(NC(=O)Nc3ccccc3)n3nc(-c4cnn(Cc5cccc(C(F)(F)F)c5)c4)nc23)n1` [compound 4, 1-{8-Methyl-2-[1-(3-trifluoromethyl-benzyl)-1H-pyrazol-4-yl]-8H-pyrazolo[4,3-e][1,2,4]triazolo [1,5-c]pyrimidin-5-yl}-3-phenylurea], for which the Ki at hA2B AR is > 10000 nM; on hA3 AR [1] (setting [8]) it was 39 nM; on hA3 AR [1] (setting [5]), 46.7 nM; at hA2A AR [3] (setting [6]) it was 2460 nM; at hA1 AR (setting [7]), 3890 nM.

On to `Cn1cc2c(nc(NC(=O)c3ccccc3)n3nc(-c4cnn(Cc5cccc(C(F)(F)F)c5)c4)nc23)n1` [compound 5, N-{8-Methyl-2-[1-(3-trifluoromethyl-benzyl)-1H-pyrazol-4-yl]-8H-pyrazolo[4,3-e][1,2,4]triazolo[1,5-c]pyrimidin-5-yl}-benzamide], for which the Ki at hA2B AR was > 10000 nM; on hA3 AR [1] (setting [5]) it was 138 nM; at hA2A AR [3] (setting [6]), > 100000 nM; at hA1 AR (setting [7]) it was 25500 nM.

In turn, `Cn1cc2c(nc(NC(=O)Cc3ccccc3)n3nc(-c4cnn(Cc5cccc(C(F)(F)F)c5)c4)nc23)n1` [compound 6, N-{8-Methyl-2-[1-(3-trifluoromethyl-benzyl)-1H-pyrazol-4-yl]-8H-pyrazolo[4,3-e][1,2,4]triazolo[1,5-c]pyrimidin-5-yl}-phenyl-acetamide] gave a melting point of 190 °C. Moreover, the inhibitory constant (Ki) at hA2B AR was > 10000 nM. Further, at hA3 AR [1] (setting [8]), the inhibition constant Ki worked out at 17 nM. Also, the inhibition constant Ki at hA3 AR [1] (setting [5]) was found to be 11 nM. Moreover, at hA3 AR [1], the “Ki, hA2a/hA3 (selectivity)” value was > 9091 and the “Ki, hA2b/hA3 (selectivity)” value is reported as > 909. For the same molecule, the Ki on hA2A AR [3] (setting [6]) was > 100000 nM. For the same molecule, the inhibitory constant (Ki) on hA1 AR (setting [7]) was > 100000 nM.

Consider `COc1ccc(CC(=O)Nc2nc3nn(C)cc3c3nc(-c4cnn(Cc5cccc(C(F)(F)F)c5)c4)nn23)cc1` [compound 7], for which the melting point was found to be 178 °C. In addition, the inhibitory constant (Ki) on hA2B AR is > 10000 nM. Moreover, the inhibition constant (Ki) on hA3 AR [1] (setting [5]) came out at 53 nM. For the same molecule, at hA2A AR [3] (setting [6]), the Ki stood at 20500 nM. The Ki on hA1 AR (setting [7]) worked out at 4390 nM.

As for `CCCn1c(=O)c2[nH]c(-c3cnn(Cc4cccc(C(F)(F)F)c4)c3)nc2n(CCC)c1=O` [compound 33, reference compound], the inhibition constant (Ki) on hA2A AR [4] is 230 nM. Further, the inhibitory constant (Ki) at hA3 AR [2] is 56 nM. Moreover, on hA3 AR [1], the “Ki, hA1/hA3 (selectivity)” value was 3 and the “Ki, hA2a/hA3 (selectivity)” value was 4.

Consider `CCCn1c(=O)c2[nH]c(-c3cnn(Cc4cccc(F)c4)c3)nc2n(CCC)c1=O` [compound 36, reference compound], for which the Ki on hA2A AR [4] is 400 nM. Also, the Ki at hA3 AR [2] is 150 nM. Besides, on hA3 AR [1], the “Ki, hA1/hA3 (selectivity)” value is reported as 1 and the “Ki, hA2a/hA3 (selectivity)” value stood at 3.
